Calls of active or inactive are those of the source. No cut-off for these calls is given here.

Test [1] relates to HCT-116. The test can be described thus: Induction of apoptosis in human HCT116 cells assessed as accumulation of cleaved caspase-7 at 10 uM after 48 hrs by Western blot analysis. Format: functional, cell-based. For orientation: In western blotting, separated proteins are transferred to a membrane and probed.
Test [2] deals with HCT-116. The experiment in a line: Anticlonogenic activity against human HCT116 cells at 2 uM after 7 days using crystal violet staining. Format: functional.
The subject of test [3] is HCT-116. The experiment in a line: Induction of apoptosis in human HCT116 cells assessed as fragmented nuclei at 10 uM after 48 hrs by fluorescence microscopy method. Format: functional, cell-based.
For test [4], the system named is HCT-116. The test can be described thus: Antiproliferative activity against human HCT116 cells assessed as cell growth inhibition at 10 to 40 uM by WST-8 assay. Format: functional, cell-based. The conditions noted are these: TDE = time-dependent effect. (Formazan colour is commonly taken as a measure of viable cells.)
Test [5] has as its system HCT-116. The experiment in a line: Induction of apoptosis in human HCT116 cells assessed as condensed chromatin at 10 uM after 48 hrs by fluorescence microscopy method. Format: functional, cell-based.
Test [6] has as its system HCT-116. The experiment in a line: Induction of apoptosis in human HCT116 cells assessed as shrunken nuclei at 10 uM after 48 hrs by fluorescence microscopy method. Format: functional, cell-based.
Test [7] deals with HCT-116. The experiment in a line: Antiproliferative activity against human HCT116 cells assessed as cell growth inhibition after 12 to 48 hrs by WST-8 assay. Format: functional, cell-based.
The subject of test [8] is HCT-116. The test can be described thus: Induction of apoptosis in human HCT116 cells assessed as increase in cleaved PARP level at 10 uM by Western blot analysis. The conditions noted are these: TDE = time-dependent effect. Format: functional, cell-based.

On to `COc1cc2c(c(OC)c1OC)-c1c(cc3c(c1OC)OCO3)C[C@@H](C)[C@](C)(O)C2`, for which the outcome in the test with HCT-116 [1], with HCT-116 [3], in the test with HCT-116 [5] and in the test on HCT-116 [6] was Active. For the same compound, the Activity is 50% with HCT-116 [2] and “tde” with HCT-116 [8]. The “growth inhibition (GI)” value with HCT-116 [4] was “tde”; with HCT-116 [7], “Dose-dependent effect”.
With `COc1cc2c(c(OC)c1OC)-c1c(cc3c(c1OC)OCO3)C[C@H](C)[C@](C)(O)C2`, the result with HCT-116 [1] was Active.

The values are drawn from ChEMBL document CHEMBL1833922, “A compound isolated from Schisandra chinensis induces apoptosis” (2011).
